From patent US20030229067A1, “Pyrrolopyrimidine A2b selective antagonist compounds, their synthesis and use” (priority 2001, published 2003)

SMILES	melting point
CC(=O)NCCNc1nc(-c2ccccc2)nc2[nH]c(C(=O)NC3CC4CCC3C4)cc12 (stereo not shown) [26.17]	280 to 285 °C (dec.)
CC(=O)NCCNc1nc(-c2ccccc2)nc2[nH]c(C(=O)N3CCC(O)(C(C)C)CC3)cc12 [26.4, N-{2-[6-(4-Hydroxy4-isopropylpiperidine-1-carbonyl)-2-phenyl-7H-pyrrolo[2,3-d]pyrimidin-4-ylamino]-ethyl}-acetamide]	140 to 145 °C (dec.)
CC(=O)NCCNc1nc(-c2ccccc2)nc2[nH]c(C(=O)N3CCC(O)(c4ccc(F)cc4)CC3)cc12 [26.18, N-(2-{6-[4-(4-Fluorophenyl)4-hydroxypiperidine-1-carbonyl]-2-phenyl-7H-pyrrolo[2,3-d]pyrimidin-4-ylamino}-ethyl)-acetamide]	150 to 153 °C
CC(=O)NCCNc1nc(-c2ccccc2)nc2[nH]c(C(=O)N3CCC(c4ccccc4)(c4ccccc4)CC3)cc12 [26.25, N-{2-[6-(4,4-Diphenylpiperidine-1-carbonyl)-2-phenyl-7H-pyrrolo[2,3-d]pyrimidin-4-ylamino]-ethyl}-acetamide]	254 to 256 °C
CC(=O)NCCNc1nc(-c2ccccc2)nc2[nH]c(C(=O)N3C[C@@H](C)N[C@@H](C)C3)cc12 [26.22, N-{2-[6-(cis-3,5-Dimethylpiperazine-1-carbonyl)-2-phenyl-7H-pyrrolo[2,3-d]pyrimidin-4-ylamino]-ethyl}-acetamide]	138 to 140 °C
CC(=O)NCCNc1nc(-c2ccccc2)nc2[nH]c(C(=O)N3CCC(O)(c4cccc(C(F)(F)F)c4)CC3)cc12 [26.10]	145 to 150 °C
CC(=O)NCCNc1nc(-c2ccccc2)nc2[nH]c(C(=O)N3CCN(c4ccccn4)CC3)cc12 [26.35, N-{2-[2-Phenyl-6-(4-pyridin-2-yl-piperazine-1-carbonyl)-7H-pyrrolo[2,3-d]pyrimidin-4-ylamino]-ethyl}-acetamide]	223 to 226 °C (dec.)
NC(=O)CNc1nc(-c2ccccc2)nc2[nH]c(C(=O)N3CCN(CCCc4ccccc4)CC3)cc12 [26.15, 2-{2-Phenyl-6-[4-(3-phenylpropyl)-piperazine-1-carbonyl]-7H-pyrrolo[2,3-d]pyrimidin-4-ylamino}-acetamide]	213 to 217 °C
NC(=O)CNc1nc(-c2ccccc2)nc2[nH]c(C(=O)N3CCC(O)(c4ccc(Cl)cc4)CC3)cc12 [26.9, 2-{6-[4-(4-Chlorophenyl)-4-hydroxypiperidine-1-carbonyl]-2-phenyl-7H-pyrrolo[2,3-d]pyrimidin-4-ylamino}-acetamide]	200 to 205 °C (dec.)
CC(=O)NCCNc1nc(-c2ccccc2)nc2[nH]c(C(=O)N3CCC(Cc4ccc(F)cc4)CC3)cc12 [26.28, N-(2-{6-[4-(4-Fluorobenzyl)-piperidine-1-carbonyl]-2-phenyl-7H-pyrrolo[2,3-d]pyrimidin-4-ylamino}-ethyl)-acetamide]	283 to 284 °C (dec.)
CC(=O)NCCNc1nc(-c2ccccc2)nc2[nH]c(C(=O)N3CCN(c4ccc(F)cc4)CC3)cc12 [26.38, N-(2-{6-[4-(4-Fluorophenyl)-piperazine-1-carbonyl]-2-phenyl-7H-pyrrolo[2,3-d]pyrimidin-4-ylamino}-ethyl)-acetamide]	234 °C
CC(=O)NCCNc1nc(-c2ccccc2)nc2[nH]c(C(=O)N3CCOCC3)cc12 [26.1, N-{2-[6-(Morpholine-4-carbonyl)-2-phenyl-7H-pyrrolo[2,3-d]pyrimidin-4-ylamino]-ethyl}-acetamide]	250 °C

Other lines, results leading:

melting point	SMILES
150 to 155 °C (dec.)	CC(=O)NCCNc1nc(-c2ccccc2)nc2[nH]c(C(=O)N3CCC(C#N)(c4ccccc4)CC3)cc12 [26.19, N-{2-[6-(4-Cyano-4-phenylpiperidine-1-carbonyl)-2-phenyl-7H-pyrrolo[2,3-d]pyrimidin-4-ylamino]-ethyl}-acetamide]
158 to 162 °C (dec.)	CC(=O)NCCNc1nc(-c2ccccc2)nc2[nH]c(C(=O)N3CCC(O)(c4ccccc4)CC3)cc12 [26.7, N-{2-[6-(4-Hydroxy4-phenylpiperidine-1-carbonyl)-2-phenyl-7H-pyrrolo[2,3-d]pyrimidin-4-ylamino]-ethyl}-acetamide]
86 to 89 °C	CC(=O)NCCNc1nc(-c2ccccc2)nc2[nH]c(C(=O)N3C[C@@H](C)N(CCCc4ccccc4)[C@@H](C)C3)cc12 [26.24, N-(2-{6-[cis-3,5-Dimethyl-4-(3-phenylpropyl)-piperazine-1-carbonyl]-2-phenyl-7H-pyrrolo[2,3-d]pyrimidin-4-ylamino}-ethyl)-acetamide]
110 to 115 °C (dec.)	CC(=O)NCCNc1nc(-c2ccccc2)nc2[nH]c(C(=O)N3C[C@@H](C)N(CCc4ccccc4)[C@@H](C)C3)cc12 [26.33, N-{2-[6-(cis-3,5-Dimethyl-4-phenethylpiperazine-1-carbonyl)-2-phenyl-7H-pyrrolo[2,3-d]pyrimidin-4-ylamino]-ethyl}-acetamide]
196 to 198 °C	CC(=O)NCCNc1nc(-c2ccccc2)nc2[nH]c(C(=O)N3C[C@@H](C)N(Cc4ccccc4)[C@@H](C)C3)cc12 [26.32]
80 to 85 °C (dec.)	COC(=O)c1cccc(OCc2cc3c(NCCNC(C)=O)nc(-c4ccccc4)nc3[nH]2)c1 [9.19, 3-[4-(2-Acetylaminoethylamino)-2-phenyl-7H-pyrrolo[2,3-d]pyrimidin-6-ylmethoxy]-benzoic acid methyl ester]
250 to 257 °C (dec.)	CC(=O)NCCNc1nc(-c2ccccc2)nc2[nH]c(C(=O)Nc3ccc(Oc4ccccc4)cc3)cc12 [26.2, 4-(2-Acetylaminoethylamino)-2-phenyl-7H-pyrrolo[2,3-d]pyrimidine-6-carboxylic acid (4-phenoxyphenyl)-amide]
98 to 100 °C	CC(=O)NCCNc1nc(-c2ccccc2)nc2[nH]c(C(=O)N3C[C@@H](C)N(CCCc4ccccc4)C[C@@H]3C)cc12 [26.30]
135 to 138 °C	COC1(c2ccccc2)CCN(C(=O)c2cc3c(NCCNC(C)=O)nc(-c4ccccc4)nc3[nH]2)CC1 [26.27, N-{2-[6-(4-Methoxy-4-phenylpiperidine-1-carbonyl)-2-phenyl-7H-pyrrolo[2,3-d]pyrimidin-4-ylamino]-ethyl}-acetamide]
83 to 87 °C (dec.)	CC(=O)NCCNc1nc(-c2ccccc2)nc2[nH]c(/C=N/OCc3ccccc3)cc12 [22.1, N-{2-[6-(Benzyloxyiminomethyl)-2-phenyl-7H-pyrrolo[2,3-d]pyrimidin-4-ylamino]-ethyl}-acetamide]
140 °C (dec.)	CC(=O)NCCNc1nc(-c2ccccc2)nc2[nH]c(C(=O)N3CCC4(CC3)CCN(Cc3ccccc3)C4=O)cc12 [26.49, N-{2-[6-(2-Benzyl-1-oxo-2,8-diazaspiro[4.5]decane-8-carbonyl)-2-pheny1-7H-pyrrolo[2,3-d]pyrimidin-4-ylamino]-ethyl}-acetamide]
260 to 261 °C	CC(=O)NCCNc1nc(-c2ccccc2)nc2[nH]c(C(=O)N3CCC(Cc4ccccc4)CC3)cc12 [26.54, N-{2-[6-(4-Benzylpiperidine-1-carbonyl)-2-phenyl-7H-pyrrolo[2,3-d]pyrimidin-4-ylamino]-ethyl}-acetamide]
140 to 145 °C	CC(=O)NCCNc1nc(-c2ccccc2)nc2[nH]c(C(=O)N3CCCC(C)(c4ccccc4)C3)cc12 (stereo not shown) [26.36, N-{2-[6-(3-Methyl-3-phenylpiperidine-1-carbonyl)-2-phenyl-7H-pyrrolo[2,3-d]pyrimidin-4-ylamino]-ethyl}-acetamide]
